Measured values reported in patent US20140249147A1, “Substituted Bicyclic Aza-Heterocycles and Analogues as Sirtuin Modulators” (GlaxoSmithKline, LLC, priority 2011, published 2014).

Columns and labels:
SIRT1 [1] = molecular target: T1, SIRT1 (Homo sapiens, UniProt Q96EB6); test: TAMRA based mass spectrometry assay of SIRT1 activation; format: biochemical; conditions: TAMRA peptide substrate; for Emax: 25 min, percent maximum fold activation relative to control (100%), read-out: TAMRA % Fold Act; for TAMRA EC1.5 (μM): concentration giving 150% activation of SIRT1
T1 sequence (Q96EB6 1-747): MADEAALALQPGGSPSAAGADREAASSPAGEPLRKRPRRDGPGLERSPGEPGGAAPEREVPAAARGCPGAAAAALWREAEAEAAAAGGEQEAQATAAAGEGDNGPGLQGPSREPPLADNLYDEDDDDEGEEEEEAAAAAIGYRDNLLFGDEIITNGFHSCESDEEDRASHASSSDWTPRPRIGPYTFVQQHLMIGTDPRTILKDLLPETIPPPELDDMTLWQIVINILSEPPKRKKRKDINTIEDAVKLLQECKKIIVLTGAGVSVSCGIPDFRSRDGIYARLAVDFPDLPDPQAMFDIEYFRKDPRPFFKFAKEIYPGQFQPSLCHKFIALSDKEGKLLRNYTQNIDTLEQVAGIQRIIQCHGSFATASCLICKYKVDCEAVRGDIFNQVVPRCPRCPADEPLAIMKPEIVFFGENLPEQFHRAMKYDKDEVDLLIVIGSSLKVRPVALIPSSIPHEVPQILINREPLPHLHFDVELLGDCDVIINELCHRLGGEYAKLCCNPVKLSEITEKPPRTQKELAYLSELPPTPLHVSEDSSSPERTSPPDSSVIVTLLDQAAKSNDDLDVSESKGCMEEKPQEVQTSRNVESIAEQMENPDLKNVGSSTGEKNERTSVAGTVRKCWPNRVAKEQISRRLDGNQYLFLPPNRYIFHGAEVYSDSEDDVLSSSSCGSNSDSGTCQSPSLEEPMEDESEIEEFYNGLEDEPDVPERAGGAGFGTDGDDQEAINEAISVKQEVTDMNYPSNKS
Text: (§1) Mass spectrometry based assays were used to identify modulators of SIRT1 activity. The TAMRA based assay utilized a peptide having 20 amino acid residues as follows: Ac-EE-K(biotin)-GQSTSSHSK(Ac)NleSTEG-K(5TMR)-EE-NH2 (SEQ ID NO: 1), wherein K(Ac) is an acetylated lysine residue and Nle is a norleucine. The peptide was labeled with the fluorophore 5TMR (excitation 540 nm/emission 580 nm) at the C-terminus. The sequence of the peptide substrate was based on p53 with several modifications. In addition, the methionine residue naturally present in the sequence was replaced with the norleucine because the methionine may be susceptible to oxidation during synthesis and purification. The Trp based assay utilized a peptide having an amino acid residues as follows: Ac—R—H—K—K(Ac)—W—NH2 (SEQ ID NO: 2).
The TAMRA based mass spectrometry assay was conducted as follows: 0.5 μM peptide substrate and 120 μM βNAD^+ was incubated with 10 nM SIRT1 for 25 minutes at 25° C. in a reaction buffer (50 mM Tris-acetate pH 8, 137 mM NaCl, 2.7 mM KCl, 1 mM MgCl2, 5 mM DTT, 0.05% BSA). The SIRT1 protein was obtained by cloning the SirT1 gene into a T7-promoter containing vector, which was then transformed and expressed in BL21(DE3) bacterial cells. Test compound was added at varying concentrations to this reaction mixture and the resulting reactions were monitored. After the 25 minute incubation with SIRT1, 10 μL of 10% formic acid was added to stop the reaction. The resulting reactions were sealed and frozen for later mass spec analysis. Determination of the amount of deacetylated substrate peptide formed (or, alternatively, the amount of O-acetyl-ADP-ribose (OAADPR) generated) by the sirtuin-mediated NAD-dependent deacetylation reaction allowed for the precise measurement of relative SIRT1 activity in the presence of varying concentrations of the test compound versus control reactions lacking the test compound.
(§2) A control for inhibition of sirtuin activity was conducted by adding 1 μL of 500 mM nicotinamide as a negative control at the start of the reaction (e.g., permits determination of maximum sirtuin inhibition). A control for activation of sirtuin activity was conducted using 10 nM of sirtuin protein, with 1 μL of DMSO in place of compound, to determine the amount of deacetylation of the substrate at a given time point within the linear range of the assay. This time point was the same as that used for test compounds and, within the linear range, the endpoint represents a change in velocity. For the above assay, SIRT1 protein was expressed and purified as follows. The SirT1 gene was cloned into a T7-promoter containing vector and transformed into BL21(DE3). The protein was expressed by induction with 1 mM IPTG as an N-terminal His-tag fusion protein at 18° C. overnight and harvested at 30,000×g. Cells were lysed with lysozyme in lysis buffer (50 mM Tris-HCl, 2 mM Tris[2-carboxyethyl]phosphine (TCEP), 10 μM ZnCl2, 200 mM NaCl) and further treated with sonication for 10 min for complete lysis. The protein was purified over a Ni-NTA column (Amersham) and fractions containing pure protein were pooled, concentrated and run over a sizing column (Sephadex S200 26/60 global). The peak containing soluble protein was collected and run on an Ion-exchange column (MonoQ). Gradient elution (200 mM-500 mM NaCl) yielded pure protein. This protein was concentrated and dialyzed against dialysis buffer (20 mM Tris-HCl, 2 mM TCEP) overnight. The protein was aliquoted and frozen at −80° C. until further use.
Sirtuin-modulating compounds of Formula (I) that activated SIRT1 were identified using the assay described above and are shown below in Table 1. The EC1.5 values represent the concentration of test compounds that result in 150% activation of SIRT1. The EC1.5 values for the activating compounds of Formula (I) are represented by A (EC1.5<1 μM), B (EC1.5 1-25 μM), C (EC1.5>25 μM). […]

SIRT1 [2] = molecular target: T1, SIRT1; test: Trp mass spectrometry assay of SIRT1 activation; format: biochemical; conditions: Trp peptide substrate; for TYP EC1.5 (μM): concentration giving 150% activation of SIRT1; for TYP % Fold Act: percent maximum fold activation relative to control (100%)
Text: as §1
The Trp mass spectrometry assay was conducted as follows. 0.5 μM peptide substrate and 120 μM βNAD^+ were incubated with 10 nM SIRT1 for 25 minutes at 25° C. in a reaction buffer (50 mM HEPES pH 7.5, […], 1 mM DTT, 0.05% BSA). The SIRT1 protein was obtained by cloning the SirT 1 gene into a T7-promoter containing vector, which was then expressed in BL21(DE3) bacterial cells and purified as described in further detail below. Test compound was added at varying concentrations to this reaction mixture and the resulting reactions were monitored. After the 25 minute incubation with SIRT1, 10 μL of 10% formic acid was added to stop the reaction. The resulting reactions were sealed and frozen for later mass spec analysis. The relative SIRT1 activity was then determined by measuring the amount of O-acetyl-ADP-ribose (OAADPR) formed (or, alternatively, the amount of deacetylated Trp peptide generated) by the NAD-dependent sirtuin deacetylation reaction in the presence of varying concentrations of the test compound versus control reactions lacking the test compound. The degree to which the test agent activated deacetylation by SIRT1 was expressed as EC1.5 (i.e., the concentration of compound required to increase SIRT1 activity by 50% over the control lacking test compound), and Percent Maximum Activation (i.e., the maximum activity relative to control (100%) obtained for the test compound).
as §2
Sirtuin-modulating compounds of Formula (I) that activated SIRT1 were identified using the assay described above and are shown below in Table 1. […]

With `O=C(Nc1nccs1)c1ccc2nnc(-c3cccc(N4CCOCC4)c3)n2n1` [Compound 5, 3-(3-morpholinophenyl)-N-(thiazol-2-yl)-[1,2,4]triazolo[4,3-b]pyridazine-6-carboxamide] as the compound, how does the Emax (SIRT1 [1]) read?
The Emax was under 350%.

And the “TAMRA EC1.5 (μM)” value (SIRT1 [1])?
The value was “C (EC1.5>25 μM)”.

What about the “TYP EC1.5 (μM)” value (SIRT1 [2]) of the same compound?
The value was “C (EC1.5>25 μM)”.

What about the “TYP % Fold Act” value (SIRT1 [2]) of the same compound?
Its value is “B (Fold Activation <350%)”.

Which Emax (SIRT1 [1]) does the source give for `O=C(Nc1ccccn1)c1ccc2nnc(-c3cccc(N4CCOCC4)c3)n2n1` [Compound 4] here?
Its Emax is under 350%.

What about the “TAMRA EC1.5 (μM)” value (SIRT1 [1]) of the same compound?
The value was “C (EC1.5>25 μM)”.

What about the “TYP EC1.5 (μM)” value (SIRT1 [2]) of the same compound?
Its value is “C (EC1.5>25 μM)”.

What about the “TYP % Fold Act” value (SIRT1 [2]) of the same compound?
The value was “B (Fold Activation <350%)”.

Which results are given for `O=C(Nc1cccc(C(F)(F)F)n1)c1ccc2nnc(-c3cccc(Cl)c3)n2n1` [Compound 6]?
Emax (SIRT1 [1]): < 350%; TYP % Fold Act (SIRT1 [2]): B (Fold Activation <350%)

How did the Emax (SIRT1 [1]) turn out when `O=C(Nc1ccc2ncc(-c3cccc(F)c3)n2n1)c1ncccn1` [Compound 16] was run?
The Emax was under 350%.

And the “TAMRA EC1.5 (μM)” value (SIRT1 [1])?
Its value is “C (EC1.5>25 μM)”.

And the “TYP EC1.5 (μM)” value (SIRT1 [2])?
The value was “C (EC1.5>25 μM)”.

And the “TYP % Fold Act” value (SIRT1 [2])?
Its value is “B (Fold Activation <350%)”.

`O=C(Nc1ccc2ncc(-c3ccccc3F)n2n1)c1nccs1` [Compound 22] was tested. Which Emax (SIRT1 [1]) did it give?
The Emax was under 350%.

What about the “TAMRA EC1.5 (μM)” value (SIRT1 [1]) of the same compound?
Its value is “C (EC1.5>25 μM)”.

What about the “TYP EC1.5 (μM)” value (SIRT1 [2]) of the same compound?
Its value is “C (EC1.5>25 μM)”.

What about the “TYP % Fold Act” value (SIRT1 [2]) of the same compound?
Its value is “B (Fold Activation <350%)”.

With `O=C(Nc1ccc2ncc(-c3ccccc3F)n2n1)c1ccccn1` [Compound 23] as the compound, how does the Emax (SIRT1 [1]) read?
Its Emax is under 350%.

What about the “TAMRA EC1.5 (μM)” value (SIRT1 [1]) of the same compound?
The value was “C (EC1.5>25 μM)”.

And the “TYP EC1.5 (μM)” value (SIRT1 [2])?
Its value is “C (EC1.5>25 μM)”.

And the “TYP % Fold Act” value (SIRT1 [2])?
The value was “B (Fold Activation <350%)”.

Which results are given for `O=C(Nc1cccc(N2CCOCC2)n1)c1ccc2ncc(-c3cccc(F)c3)n2n1` [Compound 38]?
Emax (SIRT1 [1]): < 350%; TAMRA EC1.5 (μM) (SIRT1 [1]): C (EC1.5>25 μM); TYP EC1.5 (μM) (SIRT1 [2]): C (EC1.5>25 μM); TYP % Fold Act (SIRT1 [2]): B (Fold Activation <350%)

Which Emax (SIRT1 [1]) does the source give for `O=C(Nc1cccc(C(F)(F)F)n1)c1ccc2ncc(-c3ccccc3Cl)n2n1` [Compound 21] here?
Its Emax is under 350%.

What about the “TAMRA EC1.5 (μM)” value (SIRT1 [1]) of the same compound?
The value was “C (EC1.5>25 μM)”.

What about the “TYP EC1.5 (μM)” value (SIRT1 [2]) of the same compound?
The value was “C (EC1.5>25 μM)”.

And the “TYP % Fold Act” value (SIRT1 [2])?
The value was “B (Fold Activation <350%)”.

With `O=C(Nc1nccs1)c1ccc2nnc(-c3cccc(OC(F)(F)F)c3)n2n1` [Compound 1, N-(thiazol-2-yl)-3-(3-(trifluoromethoxy)phenyl)-[1,2,4]triazolo[4,3-b]pyridazine-6-carboxamide] as the compound, how does the Emax (SIRT1 [1]) read?
The Emax was under 350%.

What about the “TAMRA EC1.5 (μM)” value (SIRT1 [1]) of the same compound?
Its value is “C (EC1.5>25 μM)”.

And the “TYP EC1.5 (μM)” value (SIRT1 [2])?
The value was “B (EC1.5 1-25 μM)”.

And the “TYP % Fold Act” value (SIRT1 [2])?
Its value is “B (Fold Activation <350%)”.

What does the source list for `O=C(Nc1cccc(N2CCOCC2)n1)c1ccc2ncc(-c3ccccc3Cl)n2n1` [Compound 44]?
Emax (SIRT1 [1]): < 350%; TAMRA EC1.5 (μM) (SIRT1 [1]): C (EC1.5>25 μM); TYP EC1.5 (μM) (SIRT1 [2]): C (EC1.5>25 μM); TYP % Fold Act (SIRT1 [2]): B (Fold Activation <350%)

How did the Emax (SIRT1 [1]) turn out when `Cc1cc(C)nc(NC(=O)c2ccc3nnc(-c4cccc(C(F)(F)F)c4)n3n2)c1` [Compound 8] was run?
The Emax was under 350%.

And the “TYP % Fold Act” value (SIRT1 [2])?
Its value is “B (Fold Activation <350%)”.

Which results are given for `O=C(Nc1cccc(N2CCOCC2)n1)c1ccc2ncc(-c3cccc(C(F)(F)F)c3)n2n1` [Compound 48]?
Emax (SIRT1 [1]): ≥ 350%; TAMRA EC1.5 (μM) (SIRT1 [1]): A (EC1.5<1 μM); TYP EC1.5 (μM) (SIRT1 [2]): A (EC1.5<1 μM); TYP % Fold Act (SIRT1 [2]): B (Fold Activation <350%)

For `O=C(Nc1ccc2ncc(-c3cccc(C(F)(F)F)c3)n2n1)c1nccs1` [Compound 18], which Emax (SIRT1 [1]) is on record?
The Emax was under 350%.

What about the “TAMRA EC1.5 (μM)” value (SIRT1 [1]) of the same compound?
The value was “C (EC1.5>25 μM)”.

What about the “TYP EC1.5 (μM)” value (SIRT1 [2]) of the same compound?
The value was “C (EC1.5>25 μM)”.

And the “TYP % Fold Act” value (SIRT1 [2])?
Its value is “B (Fold Activation <350%)”.

Which results are given for `O=C(Nc1ccnc(C(F)(F)F)c1)c1ccc2ncc(-c3cccc(Cl)c3)n2n1` [Compound 19]?
Emax (SIRT1 [1]): < 350%; TAMRA EC1.5 (μM) (SIRT1 [1]): B (EC1.5 1-25 μM); TYP EC1.5 (μM) (SIRT1 [2]): C (EC1.5>25 μM); TYP % Fold Act (SIRT1 [2]): B (Fold Activation <350%)

For `O=C(Nc1ccc2ncc(-c3cccc(C(F)(F)F)c3)n2n1)c1cnccn1` [Compound 14], which Emax (SIRT1 [1]) is on record?
Its Emax is under 350%.

And the “TAMRA EC1.5 (μM)” value (SIRT1 [1])?
Its value is “C (EC1.5>25 μM)”.

What about the “TYP EC1.5 (μM)” value (SIRT1 [2]) of the same compound?
Its value is “C (EC1.5>25 μM)”.

And the “TYP % Fold Act” value (SIRT1 [2])?
The value was “B (Fold Activation <350%)”.
